From patent publication US9649300B2, “Inhibition of WNT, TGF beta and Hippo signaling pathways to treat cancer, organ fibrosis and metabolic disorders” (University of Pittsburgh—of the Commonwealth System of …, priority 2013, dated 2017)
One block for each compound: values may come before it.

Columns and labels:
[1] = oral, eight-week-old male untrained mice; cited from earlier work
Hippo pathway = experiment: TEAD luciferase reporter (8xGT-II) as readout for Hippo signaling; format: cell-based; details: for inhibition of Hippo signaling: FIG. 8; for activity of Hippo reporter: FIG. 5
Procedure: (§1) FIGS. 1A-1C. Screening for small molecules inhibitors of the Hippo pathway. FIG. 1A. Hippo associated luciferase reporter (8xGT-II) was used to screen a series of 30 thiadiazole derivatives. Cells transfected with the construct were incubated in the absence (c) or presence of the compounds at 10 μM for 24 hours. Luciferase activity expressed in arbitrary units (AU) was measured in protein extracts. Data represent average for three replicates ±SE. FIG. 1B. Structure of S21 compound. FIG. 1C. Activity of S21 on Hippo versus CMV-Luciferase reporter measured as described above.
(§2) FIG. 2. S21 as a common inhibitor of Wnt, TGF beta and Hippo. 293 cells were transfected with luciferase reporters corresponding to each pathway and then exposed to S21, the Wnt inhibitor Pyrvinium (PYR) or the TGF beta inhibitor SB-431 at the indicated concentrations. After 24 hours, the cells were lysed and luciferase activity measured. Data represent average of three replicates ±SE.
(§3) FIG. 5. Effect of S21 versus Pirfenidone on activity of Wnt, TGF beta and Hippo reporters. 293 cells were transfected with luciferase reporters corresponding to the three pathways and then incubated with the indicated concentration of S21 or Pirfenidone for 24 hours. Luciferase activity was measured in the protein extract. Each point represents average of three determinations ±SE.
(§4) A TEAD luciferase reporter system was used as a readout for Hippo signaling, to screen a series of thiadiazole derivatives synthesized in our laboratory. For this, 293 cells transfected with the reporter construct were incubated in the absence or the presence of individual compounds at 10 μM concentration each for 24 hours. Proteins were then extracted and used as a source of enzyme of luciferase activity.

melanoma cells WM266 [2] = experiment: Tumor xenograft mouse model; format: in vivo
Procedure: FIGS. 9A-9B. Effect of C19 (mg/Kg) on tumor growth (FIG. 9A) and body weight (FIG. 9B). Data represents 7 replicates ±SE. *p<0.05., **p<0.01.
To obtain information regarding the efficacy of C19 in a tumor xenograft mouse model, nude mice (strain CD1) were injected subcutaneously with melanoma cells WM266. After tumors became palpable (˜5 mm in diameter), the mice were randomized into control and treatment groups (n=7). The control group was injected intraperitoneally with the vehicle (DMSO 3% in 200 μl of DMEM) and the treatment groups were injected with increasing doses of C19 (in mg/Kg) dissolved in 200 μl of vehicle solution. The animals received 3 injections starting on day 15 and separated by three days. Tumor volumes and body weight were measured on a daily basis.

AMPK = experiment: Phosphorylation (activation) of AMPK; format: cell-based; details: for activation of AMPK: FIG. 8
Procedure: (§5) FIGS. 10A-10F. FIGS. 10A and 10B. Dose and time dependent effects of C19 on phosphorylation of AMPK. In FIG. 10B, C19 was used at 5 μM. FIG. 10C. Effect of AICAR on phosphorylation of AMPK. FIG. 10D. Confirmation in different cell lines. FIGS. 10E and 10F. Effect of C19 on phosphorylation of downstream AMPK targets ACC and UIK1.
(§6) Investigation of the mechanism by which C19 exert its activity led to the discovery that, in addition to its effect on MST/Lats, this compound acts as a potent activator of the metabolic enzyme and tumor suppressor kinase AMPK (FIG. 10).

ACC = experiment: Phosphorylation of downstream AMPK target ACC; format: cell-based; details: FIG. 10E
Procedure: as §5, §6

Ulk1 = experiment: Phosphorylation of downstream AMPK target Ulk1; format: cell-based; details: FIG. 10F
Procedure: as §5, §6

Wnt = Wnt luciferase reporter in 293 cells; format: cell-based; details: for activity of Wnt reporter: FIG. 5
Procedure: as §2, §3
(§7) By comparison, none of Wnt or TGF beta inhibitors had affected the Hippo pathway reporter.

TGF beta = TGF beta luciferase reporter in 293 cells; format: cell-based; details: for activity of TGF beta reporter: FIG. 5
Procedure: as §2, §3, §7

[3] = system: luciferase driven by the CMV promoter; experiment: CMV-Luciferase reporter (specificity control); format: cell-based
Procedure: as §1, §4

MST1 = target: T1, MST1 (Homo sapiens, UniProt Q13043); experiment: Western blot, phosphorylation of core kinase MST1; format: cell-based; details: dose-dependent, FIG. 3A
T1 construct: endogenous in cells
T1 sequence (Q13043 1-487): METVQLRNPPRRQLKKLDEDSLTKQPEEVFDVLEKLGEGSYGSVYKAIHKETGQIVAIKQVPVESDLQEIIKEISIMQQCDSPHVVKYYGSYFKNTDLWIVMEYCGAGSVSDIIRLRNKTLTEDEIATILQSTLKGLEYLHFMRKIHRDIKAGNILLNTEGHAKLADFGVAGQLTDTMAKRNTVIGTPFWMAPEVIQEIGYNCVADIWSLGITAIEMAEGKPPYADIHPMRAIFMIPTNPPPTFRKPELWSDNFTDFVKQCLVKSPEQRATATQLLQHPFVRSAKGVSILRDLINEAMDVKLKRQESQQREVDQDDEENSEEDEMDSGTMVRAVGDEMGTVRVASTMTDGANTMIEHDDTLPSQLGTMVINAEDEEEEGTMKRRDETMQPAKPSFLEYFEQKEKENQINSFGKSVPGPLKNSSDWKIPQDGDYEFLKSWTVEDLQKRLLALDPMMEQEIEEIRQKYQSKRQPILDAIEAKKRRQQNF
Procedure: (§8) FIGS. 3A-3B. Effect of S21 on key elements of the Hippo pathway. Western blot analysis was carried out to determine the effect of S21 on expression and phosphorylation of MST/Lats (FIG. 3A) and nucleocytoplasmic localization of YAP and beta catenin (FIG. 3B).
(§9) To gain insights into the mechanism(s) by which S21 inhibits the Hippo pathway, its effect on activation of the core kinases MST1 and Lats1 was analyzed.

Lats1 = target: T2, Lats1 (Homo sapiens, UniProt O95835); experiment: Western blot, phosphorylation of core kinase Lats1; format: cell-based; details: dose-dependent, FIG. 3A
T2 construct: endogenous in cells
T2 sequence (O95835 1-1130): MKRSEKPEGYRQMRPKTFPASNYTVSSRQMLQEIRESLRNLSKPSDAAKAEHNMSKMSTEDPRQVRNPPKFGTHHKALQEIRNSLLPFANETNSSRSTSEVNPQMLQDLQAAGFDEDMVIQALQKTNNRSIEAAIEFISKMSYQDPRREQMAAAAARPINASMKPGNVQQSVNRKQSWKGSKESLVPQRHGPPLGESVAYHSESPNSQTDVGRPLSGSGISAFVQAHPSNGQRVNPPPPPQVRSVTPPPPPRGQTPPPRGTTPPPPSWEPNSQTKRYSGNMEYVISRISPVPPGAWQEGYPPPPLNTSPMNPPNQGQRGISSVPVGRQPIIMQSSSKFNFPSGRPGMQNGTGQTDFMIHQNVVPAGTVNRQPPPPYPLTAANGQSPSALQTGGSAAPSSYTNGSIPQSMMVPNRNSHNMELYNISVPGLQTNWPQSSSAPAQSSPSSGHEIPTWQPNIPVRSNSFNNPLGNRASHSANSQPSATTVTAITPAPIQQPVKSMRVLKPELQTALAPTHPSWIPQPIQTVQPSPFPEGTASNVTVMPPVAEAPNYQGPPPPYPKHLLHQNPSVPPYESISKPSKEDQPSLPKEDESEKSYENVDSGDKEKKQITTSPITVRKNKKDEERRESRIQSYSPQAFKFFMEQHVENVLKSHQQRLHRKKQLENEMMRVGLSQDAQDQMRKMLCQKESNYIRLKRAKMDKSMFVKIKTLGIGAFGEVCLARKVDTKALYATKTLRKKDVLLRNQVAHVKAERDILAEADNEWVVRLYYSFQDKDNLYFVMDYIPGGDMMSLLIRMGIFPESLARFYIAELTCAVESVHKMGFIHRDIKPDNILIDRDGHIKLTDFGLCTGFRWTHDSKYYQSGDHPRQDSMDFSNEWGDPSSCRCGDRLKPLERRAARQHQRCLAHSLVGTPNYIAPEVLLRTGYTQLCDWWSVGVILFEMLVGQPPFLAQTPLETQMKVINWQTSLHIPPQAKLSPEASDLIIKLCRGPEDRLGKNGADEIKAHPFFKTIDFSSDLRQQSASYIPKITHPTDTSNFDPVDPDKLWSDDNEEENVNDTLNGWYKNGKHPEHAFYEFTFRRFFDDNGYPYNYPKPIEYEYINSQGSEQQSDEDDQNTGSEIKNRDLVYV
Procedure: as §8, §9

YAP = experiment: Western blot, nucleocytoplasmic localization of YAP; format: cell-based; details: FIG. 3B
Procedure: as §8, §9

beta catenin = experiment: Western blot, nucleocytoplasmic localization of beta catenin; format: cell-based; details: FIG. 3B
Procedure: as §8, §9

melanoma cells WM266 [4] = experiment: Western blots of EMT genes and downstream target genes; format: cell-based; details: WM266, 24 hours
Procedure: (§10) FIGS. 4A-4D. Inhibition of EMT, cell migration, proliferation and resistance to therapy by S21. FIG. 4A. Western blots showing inhibition of various EMT genes in melanoma cells WM266 exposed to the indicated concentrations of S21 for 24 hours. FIG. 4B. Cell monolayer scratch assay depicting inhibition of cell migration by S21. FIG. 4C. Effect of S21 on cell proliferation measured after 5 days of incubation. FIG. 4D. Cell response to doxorubicin was measured in the presence of and absence of S21. Data in panels C and D represent average of three determinations ±SE.
(§11) Future studies will be needed to elucidate the underlying mechanism.

cell migration = experiment: Cell monolayer scratch assay; format: cell-based; details: FIG. 4B
Procedure: as §10, §11

[5] = system: three melanoma and one colon cancer cell lines; experiment: Cell proliferation after 5 days of incubation; format: cell-based
Procedure: as §10, §11

melanoma cell = experiment: Cell response to doxorubicin with and without S21; format: cell-based; details: FIG. 4D
Procedure: as §10, §11

fibroblasts = experiment: Expression of fibrotic markers (QPCR, Western blot); format: cell-based; details: RNA and protein level
Source text: FIGS. 6A-6B. S21 inhibits expression of pro-fibrotic and pro-EMT genes. FIG. 6A. QPCR analysis depicting expression levels of pro-EMT ad fibrosis genes in the absence and the presence of S21. FIG. 6B. Western blot analysis showing the effect of S21 on expression of fibronectin, collagen and vimentin. Beta catenin was used as a loading control.

[6] = tested for up to 100 μM, data not shown

SMILES: NC(=O)c1ncn([C@@H]2O[C@H](CO)[C@@H](O)[C@H]2O)c1N [AICAR, 5-aminoimidazole-4-carboxamide 1-D-ribonucleoside]
increase in endurance without exercise [1]: 44%

SMILES: OCCCCOc1nsnc1-c1ccc(Cl)c(Cl)c1 [C19, 4-((4-(3,4-dichlorophenyl)-1,2,5-thiadiazol-3-yl)oxy)butan-1-ol]
inhibition of Hippo signaling (Hippo pathway): inhibition | inhibition of tumor growth (melanoma cells WM266 [2]; 20 mg/Kg intraperitoneal, 3 injections from day 15): about 90% | tumor growth (melanoma cells WM266 [2]; intraperitoneal, increasing doses, 3 injections from day 15): suppresses tumor growth in a dose dependent manner | signs of toxicity or death (melanoma cells WM266 [2]; throughout the experiment): No signs of toxicity or death | body weight compared to controls (melanoma cells WM266 [2]; treatment groups, FIG. 9B): did not change significantly | activation of AMPK (AMPK): activation | potency on AMPK relative to AICAR (AMPK; FIG. 10C): at least 10 times | effect on AMPK in different cell lines (AMPK; FIG. 10D): validated | phosphorylation (activation) of AMPK (AMPK; concentration and time dependent, FIGS. 10A and 10B): induced phosphorylation | phosphorylation of ACC (ACC): induced phosphorylation | phosphorylation of Ulk1 (Ulk1): induced phosphorylation

activity of Hippo reporter (Hippo pathway; 293 cells, 24 hours): without effect | inhibition of Hippo reporter (Hippo pathway; [6]): no inhibition was detected
SMILES: Cc1ccc(=O)n(-c2ccccc2)c1 [Pirfenidone, reference compound]
activity of Wnt reporter (Wnt; 293 cells, 24 hours): without effect | inhibition of Wnt reporter (Wnt; [6]): no inhibition was detected | activity of TGF beta reporter (TGF beta; 293 cells, 24 hours): without effect | inhibition of TGF beta reporter (TGF beta; [6]): no inhibition was detected

SMILES: OCCCCOc1nsnc1-c1ccc(Cl)cc1 [S21]
inhibition of TEAD luciferase reporter activity (Hippo signaling) (Hippo pathway; 293 cells, 10 μM, 24 hours): strongest inhibition | activity of Hippo reporter (Hippo pathway; 293 cells, 24 hours): dose dependent inhibition | inhibition of Hippo signaling (Hippo pathway): inhibition | inhibition of luciferase driven by the CMV promoter [3]: did not inhibit | inhibition of Wnt signaling reporter (Wnt; 293 cells, 24 hours, FIG. 2): remarkably inhibited | activity of Wnt reporter (Wnt; 293 cells, 24 hours): dose dependent inhibition | inhibition of TGF beta signaling reporter (TGF beta; 293 cells, 24 hours, FIG. 2): remarkably inhibited | activity of TGF beta reporter (TGF beta; 293 cells, 24 hours): dose dependent inhibition | phosphorylation of MST1 (MST1): induced phosphorylation | phosphorylation of Lats1 (Lats1): induced phosphorylation | nuclear and cytoplasmic levels of YAP (YAP): reduced nuclear localization and enhanced cytoplasmic levels | nuclear and cytoplasmic levels of beta catenin (beta catenin): reduced nuclear localization and enhanced cytoplasmic levels | expression of EMT-associated gene Zeb1 (melanoma cells WM266 [4]): strongly inhibits | level of Cyclin D (melanoma cells WM266 [4]): reduced | level of Hes (melanoma cells WM266 [4]): reduced | level of Myc (melanoma cells WM266 [4]): reduced | cell migration (cell migration): strongly inhibited | response of metastatic WM266 versus non-metastatic WM115 ([5]; melanoma cell lines): responded better | anti-proliferative action ([5]; three melanoma and one colon cancer cell lines): anti-proliferative action | melanoma cell response to doxorubicin in presence of compound (melanoma cell): significantly enhanced | expression of Collagen (fibroblasts): dose dependent decrease | expression of Finbronectin (fibroblasts): dose dependent decrease | activation of AMPK (AMPK): activation
